Reference: patent publication US9326539B2, “Compositions comprising dietary fat complexers and methods for their use” (Soho Flordis International Pty. Ltd., priority 2002, dated 2016)

Experiment: human volunteer on high fat diet with α-cyclodextrin: weight loss and blood parameters
Assay type: in vivo
Conditions: one volunteer; for HDL cholesterol: baseline 0.97; for Triglycerides: baseline 2.76; for Insulin Resistance: baseline 2.85; for Cholesterol: baseline 4.76
Method: The α-cyclodextrin was added to the subject's diet in a proportion of one gram Of α-cyclodextrin for every nine grams of fat that were estimated to be consumed by the subject. […] 200 days, approximately 6 months— By 6 months the subject's body weight was reduced by 32 pounds. In addition to the weight loss, within the first two weeks of the study, the subject's elevated blood pressure fell to the point where they were forced to reduce their prescribed beta-blacker by one-third. Their blood triglycerides were also assayed during this time and their blood serum triglyceride levels were decreased by 23% within the first month and 46% by the end of six months.

Question: With OC[C@H]1O[C@@H]2O[C@H]3[C@H](O)[C@@H](O)[C@@H](O[C@H]4[C@H](O)[C@@H](O)[C@@H](O[C@H]5[C@H](O)[C@@H](O)[C@@H](O[C@H]6[C@H](O)[C@@H](O)[C@@H](O[C@H]7[C@H](O)[C@@H](O)[C@@H](O[C@H]1[C@H](O)[C@H]2O)O[C@@H]7CO)O[C@@H]6CO)O[C@@H]5CO)O[C@@H]4CO)O[C@@H]3CO [α-cyclodextrin] as the compound, how does the body weight reduction (initial weight 267 pounds, 1 g α-cyclodextrin per 9 g fat, by 6 months) read?
Answer: The body weight reduction was 32 pounds.

Question: What about the “Body Mass Index” value (1 month) of the same compound?
Answer: Its value is 39.17.

Question: And the Hip (1 month)?
Answer: The Hip was 127 cm.

Question: And the Waist (1 month)?
Answer: Its Waist is 124 cm.

Question: And the HDL cholesterol (1 month)?
Answer: Its HDL cholesterol is 1.00 mmol/L.

Question: And the Triglycerides (1 month)?
Answer: The Triglycerides was 2.13 mmol/L.

Question: What about the “Insulin Resistance” value (1 month) of the same compound?
Answer: The value was 2.13.

Question: And the Cholesterol (1 month)?
Answer: Its Cholesterol is 4.76 mmol/L.

Question: What about the “Body Mass Index” value (6 months) of the same compound?
Answer: Its value is 37.27.

Question: And the Hip (6 months)?
Answer: The Hip was 117 cm.

Question: What about the Waist (6 months) of the same compound?
Answer: Its Waist is 117 cm.

Question: What about the HDL cholesterol (6 months) of the same compound?
Answer: The HDL cholesterol was 1.11 mmol/L.

Question: What about the Triglycerides (6 months) of the same compound?
Answer: The Triglycerides was 1.50 mmol/L.

Question: And the “Insulin Resistance” value (6 months)?
Answer: The value was 1.35.

Question: And the Cholesterol (6 months)?
Answer: The Cholesterol was 4.0 mmol/L.

Question: What about the “decrease of blood serum triglyceride levels” value (by the end of six months) of the same compound?
Answer: The value was 46%.

Question: What about the “decrease of blood serum triglyceride levels” value (within the first month) of the same compound?
Answer: The value was 23%.

Question: And the elevated blood pressure (within the first two weeks)?
Answer: The elevated blood pressure was “fell”.
